{
  "source": "patent US20040120916A1",
  "about": "“Contact lens care compositions, methods of use and preparation which protect ocular tissue membrane integrity” (ADVANCED MEDICAL OPTICS, INC., priority 2002, published 2004)",
  "origin": "cited, not measured here",
  "key": {"[1]": {"system": "rat large-intestinal tissue"}, "[2]": {"system": "rat large-intestinal tissue", "details": "decrease caused by sodium laurate"}, "[3]": {"system": "lipopolysaccharide (LPS)-intoxicated rats", "details": "LPS rat stomachs irrigated with acid solution"}, "[4]": {"system": "human corneal epithelial cells", "details": "450 mOsm/kg hypertonic medium; 1 mM taurine (0.0125 w/v %)"}},
  "data": [
    {"compound": "NCCS(=O)(=O)O", "note": "[taurine]", "values": [
      {"measurement": "release of histamine enhanced by sodium laurate", "setting": "[1]", "value": "suppress the release of histamine"},
      {"measurement": "transepithelial electrical resistance, a measure of cell membrane integrity", "setting": "[2]", "value": "significantly suppressed the decrease"},
      {"measurement": "ulcerogenic parameters including mucosal histamine concentrations", "setting": "[3]", "value": "dose-dependent attenuations"},
      {"measurement": "cell survival", "setting": "[4]", "value": "significantly increased cell survival"}
    ]}
  ]
}
